Measurements published in PubChem BioAssay (NCI).
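Cells were grown in 96-well plates and exposed to each compound for 48 hours at five concentrations; endpoints were interpolated linearly between bracketing concentrations, or set to the highest concentration if not reached. TGI: concentration producing complete growth inhibition.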

Key:
Test in all cases: inhibition of tumour cell growth, NCI panel, 48 h
NCI-H522 lung = test system: NCI-H522 lung
PC-3 prostate = test system: PC-3 prostate
MCF7 breast = test system: MCF7 breast
HT29 colon = test system: HT29 colon
IGROV1 ovarian = test system: IGROV1 ovarian
MALME-3M melanoma = test system: MALME-3M melanoma
NCI-H23 lung = test system: NCI-H23 lung
HOP-92 NSCLC = test system: HOP-92 NSCLC
MDA-N = test system: MDA-N
HCT-116 colon = test system: HCT-116 colon
HL-60(TB) leukemia = test system: HL-60(TB) leukemia
SR leukemia = test system: SR leukemia
OVCAR-4 ovarian = test system: OVCAR-4 ovarian
UACC-257 melanoma = test system: UACC-257 melanoma
SK-MEL-2 melanoma = test system: SK-MEL-2 melanoma
OVCAR-5 ovarian = test system: OVCAR-5 ovarian
NCI-H460 lung = test system: NCI-H460 lung
DU-145 prostate = test system: DU-145 prostate
RPMI-8226 leukemia = test system: RPMI-8226 leukemia
SW-620 colon = test system: SW-620 colon
OVCAR-8 ovarian = test system: OVCAR-8 ovarian
A498 renal = test system: A498 renal
HCT-15 colon = test system: HCT-15 colon
SK-MEL-28 melanoma = test system: SK-MEL-28 melanoma
SK-MEL-5 melanoma = test system: SK-MEL-5 melanoma
MDA-MB-435 = test system: MDA-MB-435
CCRF-CEM leukemia = test system: CCRF-CEM leukemia
HS 578T breast = test system: HS 578T breast
A549 NSCLC = test system: A549 NSCLC
SF-295 CNS = test system: SF-295 CNS
SN12C renal = test system: SN12C renal
MDA-MB-231 breast = test system: MDA-MB-231 breast
EKVX NSCLC = test system: EKVX NSCLC
U251 CNS = test system: U251 CNS
UO-31 renal = test system: UO-31 renal
SNB-75 CNS = test system: SNB-75 CNS
UACC-62 melanoma = test system: UACC-62 melanoma
TK-10 renal = test system: TK-10 renal
BT-549 breast = test system: BT-549 breast
OVCAR-3 ovarian = test system: OVCAR-3 ovarian
786-0 renal = test system: 786-0 renal
COLO 205 colon = test system: COLO 205 colon
NCI/ADR-RES ovarian = test system: NCI/ADR-RES ovarian
CAKI-1 renal = test system: CAKI-1 renal
MOLT-4 leukemia = test system: MOLT-4 leukemia
SF-539 CNS = test system: SF-539 CNS
RXF 393 renal = test system: RXF 393 renal
SK-OV-3 ovarian = test system: SK-OV-3 ovarian
LOX IMVI melanoma = test system: LOX IMVI melanoma
SF-268 CNS = test system: SF-268 CNS
T-47D breast = test system: T-47D breast
K-562 leukemia = test system: K-562 leukemia
HOP-62 NSCLC = test system: HOP-62 NSCLC
ACHN renal = test system: ACHN renal
M14 melanoma = test system: M14 melanoma
SNB-19 CNS = test system: SNB-19 CNS
KM12 colon = test system: KM12 colon
NCI-H226 lung = test system: NCI-H226 lung
HCC-2998 colon = test system: HCC-2998 colon

Measured: TGI

CCOc1cc(-c2nc3ccccn3c2/N=C/c2cc([N+](=O)[O-])cc([N+](=O)[O-])c2O)ccc1O
> 100 µM: NCI-H522 lung | PC-3 prostate | MCF7 breast | HT29 colon | IGROV1 ovarian | MALME-3M melanoma | NCI-H23 lung | HOP-92 NSCLC | MDA-N | HCT-116 colon | HL-60(TB) leukemia | SR leukemia | OVCAR-4 ovarian | UACC-257 melanoma | SK-MEL-2 melanoma | OVCAR-5 ovarian | NCI-H460 lung | DU-145 prostate | RPMI-8226 leukemia | SW-620 colon | OVCAR-8 ovarian | A498 renal | HCT-15 colon | SK-MEL-28 melanoma | SK-MEL-5 melanoma | MDA-MB-435 | CCRF-CEM leukemia | HS 578T breast | A549 NSCLC | SF-295 CNS | SN12C renal | MDA-MB-231 breast | EKVX NSCLC | U251 CNS | UO-31 renal | SNB-75 CNS | UACC-62 melanoma | TK-10 renal | BT-549 breast | OVCAR-3 ovarian | 786-0 renal | COLO 205 colon | NCI/ADR-RES ovarian | CAKI-1 renal | MOLT-4 leukemia | SF-539 CNS | RXF 393 renal | SK-OV-3 ovarian | LOX IMVI melanoma | SF-268 CNS | T-47D breast | K-562 leukemia | HOP-62 NSCLC | ACHN renal | M14 melanoma | SNB-19 CNS | KM12 colon

CSc1c(C#N)c(O)n(-c2ccc(C)cc2)c(=O)c1C#N
> 100 µM: NCI-H522 lung | PC-3 prostate | MCF7 breast | HT29 colon | IGROV1 ovarian | MALME-3M melanoma | NCI-H23 lung | HOP-92 NSCLC | MDA-N | HCT-116 colon | HL-60(TB) leukemia | SR leukemia | OVCAR-4 ovarian | UACC-257 melanoma | SK-MEL-2 melanoma | OVCAR-5 ovarian | NCI-H460 lung | DU-145 prostate | RPMI-8226 leukemia | SW-620 colon | OVCAR-8 ovarian | A498 renal | HCT-15 colon | SK-MEL-28 melanoma | SK-MEL-5 melanoma | MDA-MB-435 | HS 578T breast | A549 NSCLC | SN12C renal | MDA-MB-231 breast | EKVX NSCLC | U251 CNS | UO-31 renal | SNB-75 CNS | UACC-62 melanoma | TK-10 renal | BT-549 breast | OVCAR-3 ovarian | 786-0 renal | COLO 205 colon | NCI-H226 lung | NCI/ADR-RES ovarian | CAKI-1 renal | MOLT-4 leukemia | SF-539 CNS | RXF 393 renal | SK-OV-3 ovarian | LOX IMVI melanoma | SF-268 CNS | T-47D breast | K-562 leukemia | M14 melanoma | SNB-19 CNS | HCC-2998 colon | KM12 colon
